Reference: ChEMBL document CHEMBL1201862, “PubChem BioAssay data set” (2004)
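In this assay, cells in 96-well plates receive the compound at five concentrations for 48 hours. Endpoints are linearly interpolated between the surrounding concentrations. GI50 = concentration required for 50% inhibition of growth.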 The source made the active and inactive calls. Rule as the data show it: active = GI50 up to about 1.1 µM and inactive = higher.

How the values were obtained:
Assay in all cases: NCI anticancer screen, dose series, 48 h
NCI-H23 = tested on: NCI-H23
LOX IMVI = tested on: LOX IMVI
CCRF-CEM = tested on: CCRF-CEM
OVCAR-3 = tested on: OVCAR-3
SR = tested on: SR
SK-MEL-28 = tested on: SK-MEL-28
TK-10 = tested on: TK-10
HT-29 = tested on: HT-29
SK-MEL-2 = tested on: SK-MEL-2
U-251 = tested on: U-251
K562 = tested on: K562
M14 = tested on: M14
UO-31 = tested on: UO-31
RXF 393 = tested on: RXF 393
A549 = tested on: A549
SK-OV-3 = tested on: SK-OV-3
Malme-3M = tested on: Malme-3M
HCT-15 = tested on: HCT-15
SF-539 = tested on: SF-539
NCI-H226 = tested on: NCI-H226

| SMILES | GI50 (NCI-H23) | GI50 (LOX IMVI) | GI50 (CCRF-CEM) | GI50 (OVCAR-3) | GI50 (SR) | GI50 (SK-MEL-28) | GI50 (TK-10) | GI50 (HT-29) | GI50 (SK-MEL-2) | GI50 (U-251) | GI50 (K562) | GI50 (M14) | GI50 (UO-31) | GI50 (RXF 393) | GI50 (A549) | GI50 (SK-OV-3) | GI50 (Malme-3M) | GI50 (HCT-15) | GI50 (SF-539) | GI50 (NCI-H226) |
| --- | --- | --- | --- | --- | --- | --- | --- | --- | --- | --- | --- | --- | --- | --- | --- | --- | --- | --- | --- | --- |
| C=C(Br)CN(C)CC(=C)Br | > 100 µM (inactive) | > 100 µM (inactive) | > 100 µM (inactive) | > 100 µM (inactive) | > 100 µM (inactive) | > 100 µM (inactive) | 50.1 µM (inactive) | > 100 µM (inactive) | > 100 µM (inactive) | > 100 µM (inactive) | > 100 µM (inactive) | > 100 µM (inactive) | > 100 µM (inactive) | > 100 µM (inactive) | > 100 µM (inactive) | > 100 µM (inactive) | > 100 µM (inactive) | > 100 µM | – | – |
| CC1NC(=O)C2=C1C(N)=NC(=O)C2 (stereo unspecified) | > 100 µM (inactive) | > 100 µM (inactive) | – | > 100 µM (inactive) | > 100 µM (inactive) | > 100 µM (inactive) | > 100 µM (inactive) | – | > 100 µM (inactive) | > 100 µM (inactive) | > 100 µM (inactive) | > 100 µM (inactive) | > 100 µM (inactive) | > 100 µM (inactive) | > 100 µM (inactive) | > 100 µM (inactive) | > 100 µM (inactive) | > 100 µM | > 100 µM (inactive) | > 100 µM (inactive) |
| CCCCCC[N+](C)(C)Cc1ccc(C[N+](C)(C)CCCCCC)cc1 | 1.82 µM (inactive) | 2.09 µM (inactive) | 2.73 µM (inactive) | 3.78 µM (inactive) | 2.19 µM (inactive) | 4.95 µM (inactive) | 5.64 µM (inactive) | 3.8 µM (inactive) | 2.14 µM (inactive) | 2.57 µM (inactive) | 1.61 µM (inactive) | 3.48 µM (inactive) | 8.43 µM (inactive) | 0.984 µM (active) | 3.36 µM (inactive) | 9.66 µM (inactive) | 7.76 µM (inactive) | 4 µM | – | 3.51 µM (inactive) |
| CC1C2CC(C(C3C(=O)C4CC3C(C)(C)C4C)C2=O)C1(C)C (stereo unspecified) | > 100 µM (inactive) | – | > 100 µM (inactive) | > 100 µM (inactive) | > 100 µM (inactive) | > 100 µM (inactive) | > 100 µM (inactive) | > 100 µM (inactive) | – | > 100 µM (inactive) | > 100 µM (inactive) | > 100 µM (inactive) | > 100 µM (inactive) | > 100 µM (inactive) | > 100 µM (inactive) | > 100 µM (inactive) | > 100 µM (inactive) | – | > 100 µM (inactive) | > 100 µM (inactive) |
| CC/C=C/C[C@H](O[Si](C)(C)C(C)(C)C)[C@H]1C[C@H]2O[C@H]([C@@H](O)C#C[Si](C)(C)C)C[C@H]2O1 | 12 µM (inactive) | 10.4 µM (inactive) | 21.5 µM (inactive) | 14.8 µM (inactive) | 2.31 µM (inactive) | 14.2 µM (inactive) | 15.2 µM (inactive) | 11.9 µM (inactive) | 15.5 µM (inactive) | 15.5 µM (inactive) | 13.9 µM (inactive) | 12.1 µM (inactive) | 14.2 µM (inactive) | 6.65 µM (inactive) | 10.1 µM (inactive) | 15.5 µM (inactive) | 11.9 µM (inactive) | 13.7 µM | – | 6.68 µM (inactive) |
| CN(C)c1ccc(/C=C/c2ccnc3ccc4ccccc4c23)cc1 | 52.4 µM (inactive) | 43.9 µM (inactive) | > 100 µM (inactive) | 51.9 µM (inactive) | 13.2 µM (inactive) | 38.5 µM (inactive) | 19.1 µM (inactive) | 43.5 µM (inactive) | 25.6 µM (inactive) | 28.6 µM (inactive) | 53 µM (inactive) | 81.3 µM (inactive) | 45.6 µM (inactive) | 17.7 µM (inactive) | 35.7 µM (inactive) | 27.9 µM (inactive) | 25.3 µM (inactive) | 45.9 µM | 28.4 µM (inactive) | – |
| CCOC(=O)/C=C1\Oc2ccccc2C1(C)O (stereo unspecified) | > 100 µM (inactive) | > 100 µM (inactive) | > 100 µM (inactive) | > 100 µM (inactive) | > 100 µM (inactive) | > 100 µM (inactive) | > 100 µM (inactive) | > 100 µM (inactive) | > 100 µM (inactive) | > 100 µM (inactive) | > 100 µM (inactive) | > 100 µM (inactive) | > 100 µM (inactive) | > 100 µM (inactive) | > 100 µM (inactive) | > 100 µM (inactive) | > 100 µM (inactive) | > 100 µM | – | > 100 µM (inactive) |
| O=C1NC(=O)C(CC2CCCCCCCCCCC2=O)C(=O)N1 (stereo unspecified) | > 100 µM (inactive) | > 100 µM (inactive) | 1.2 µM (inactive) | > 100 µM (inactive) | 0.041 µM (active) | > 100 µM (inactive) | > 100 µM (inactive) | 74 µM (inactive) | > 100 µM (inactive) | > 100 µM (inactive) | – | > 100 µM (inactive) | 74 µM (inactive) | > 100 µM (inactive) | > 100 µM (inactive) | > 100 µM (inactive) | – | > 100 µM | > 100 µM (inactive) | > 100 µM (inactive) |
| COc1ccc(-c2oc3cc(-c4cc5oc(-c6ccc(OC)cc6)c(-c6ccc(OC)cc6)c5cc4OC)c(OC)cc3c2-c2ccc(OC)cc2)cc1 | > 100 µM (inactive) | > 100 µM (inactive) | > 100 µM (inactive) | > 100 µM (inactive) | > 100 µM (inactive) | > 100 µM (inactive) | > 100 µM (inactive) | > 100 µM (inactive) | – | > 100 µM (inactive) | > 100 µM (inactive) | > 100 µM (inactive) | > 100 µM (inactive) | > 100 µM (inactive) | > 100 µM (inactive) | > 100 µM (inactive) | > 100 µM (inactive) | > 100 µM | > 100 µM (inactive) | > 100 µM (inactive) |
| COc1ccc(NC2Oc3cc4c(cc3C(c3cc(OC)c(O)c(OC)c3)C2C)OCO4)cc1 (stereo unspecified) | 11.2 µM (inactive) | – | – | 5.21 µM (inactive) | 0.202 µM (active) | 3.73 µM (inactive) | 2.23 µM (inactive) | 3.82 µM (inactive) | 2.25 µM (inactive) | 4.65 µM (inactive) | 2.69 µM (inactive) | 5.36 µM (inactive) | 5.97 µM (inactive) | 7.73 µM (inactive) | 3.56 µM (inactive) | – | 5.38 µM (inactive) | 1.79 µM | 4.2 µM (inactive) | 38.3 µM (inactive) |
| N#Cc1ccccc1C(Cl)(Cl)c1cnccn1 | 38.5 µM (inactive) | 24.2 µM (inactive) | 20 µM (inactive) | – | 34 µM (inactive) | 51.2 µM (inactive) | > 100 µM (inactive) | 57.4 µM (inactive) | 67 µM (inactive) | 34.8 µM (inactive) | 34.3 µM (inactive) | – | 33.3 µM (inactive) | 26.4 µM (inactive) | 83.9 µM (inactive) | 61.1 µM (inactive) | – | – | 32.4 µM (inactive) | 36.6 µM (inactive) |
| C[C@]12CC[C@H](OC(=O)Cc3ccc(N(CCCl)CCCl)cc3)CC1=CC[C@@H]1[C@@H]2CC[C@]2(C)C(=O)CC[C@@H]12 | > 100 µM (inactive) | > 100 µM (inactive) | – | > 100 µM (inactive) | 3.61 µM (inactive) | > 100 µM (inactive) | > 100 µM (inactive) | > 100 µM (inactive) | > 100 µM (inactive) | > 100 µM (inactive) | > 100 µM (inactive) | > 100 µM (inactive) | > 100 µM (inactive) | > 100 µM (inactive) | > 100 µM (inactive) | – | > 100 µM (inactive) | > 100 µM | > 100 µM (inactive) | > 100 µM (inactive) |
| CCOC(=O)N/N=C(/N)Cc1ccccc1 | – | > 100 µM (inactive) | > 100 µM (inactive) | > 100 µM (inactive) | > 100 µM (inactive) | > 100 µM (inactive) | > 100 µM (inactive) | – | > 100 µM (inactive) | > 10 µM (inactive) | > 100 µM (inactive) | > 100 µM (inactive) | > 100 µM (inactive) | > 100 µM (inactive) | > 100 µM (inactive) | > 100 µM (inactive) | > 100 µM (inactive) | > 100 µM | > 100 µM (inactive) | – |
| CC1(C)C2CCC1(C)[C@H](O)[C@H]2Nc1cc(C(F)(F)F)cc(C(F)(F)F)c1 (stereo partly specified) | 2.36 µM (inactive) | 3 µM (inactive) | – | 2.24 µM (inactive) | 2.95 µM (inactive) | 1.74 µM (inactive) | 3.15 µM (inactive) | 3.32 µM (inactive) | 2.35 µM (inactive) | 4.15 µM (inactive) | 2.79 µM (inactive) | 4.06 µM (inactive) | 3.51 µM (inactive) | 2.85 µM (inactive) | 3.7 µM (inactive) | 3.88 µM (inactive) | 3.27 µM (inactive) | 3.49 µM | 4.66 µM (inactive) | 6.5 µM (inactive) |
| NCCCCNCCCNC(=O)c1nc(-c2nc(CCN)sc2Cl)sc1Cl | 37.9 µM (inactive) | – | 89.5 µM (inactive) | > 100 µM (inactive) | 6.87 µM (inactive) | 46.5 µM (inactive) | > 100 µM (inactive) | > 100 µM (inactive) | – | > 100 µM (inactive) | 9.35 µM (inactive) | 70.1 µM (inactive) | > 100 µM (inactive) | 12.4 µM (inactive) | 44.5 µM (inactive) | > 100 µM (inactive) | 58.6 µM (inactive) | > 100 µM | 48.8 µM (inactive) | > 100 µM (inactive) |
